Test results published in patent US20230086702A1, “SUBSTITUTED 2-AMINO-PYRAZOLYL-[1,2,4]TRIAZOLO[1,5A]PYRIDINE DERIVATIVES AND USE THEREOF” (The Johns Hopkins University, priority 2019, published 2023).

Columns and labels:
DLK = target: T1, DLK (Homo sapiens, UniProt Q12852); assay: DLK biochemical assay (TR-FRET, MKK7 phosphorylation)
T1 construct: 10 nM DLK, catalytic domain, Carna Biosiences; purchased Carna Biosciences ('Carna Biosiences' [sic])
T1 sequence (Q12852 125-366 limits assumed): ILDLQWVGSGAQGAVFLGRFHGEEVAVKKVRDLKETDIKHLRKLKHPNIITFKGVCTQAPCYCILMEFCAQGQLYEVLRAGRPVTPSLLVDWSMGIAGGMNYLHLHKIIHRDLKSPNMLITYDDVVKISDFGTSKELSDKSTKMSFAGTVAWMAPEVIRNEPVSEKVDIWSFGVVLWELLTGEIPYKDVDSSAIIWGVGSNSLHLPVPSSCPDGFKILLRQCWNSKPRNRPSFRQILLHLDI
Method in brief: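 TR-FRET read-out (665/Eu ratio) of MKK7 T275/S277 phosphorylation, with inhibition lowering the signal. Final conditions: 10 nM DLK catalytic domain, 15 nM MKK7, 60 μM ATP, 90 min at RT. Detection incubation 16 h at 37° C in 1536-well or 4° C in 384-well format.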

LZK = target: T2, LZK (Homo sapiens, UniProt O43283); assay: LZK biochemical assay (TR-FRET, MKK7 phosphorylation)
T2 construct: 10 nM LZK, catalytic domain, Carna Biosiences in assay buffer; purchased Carna Biosciences ('Carna Biosiences' [sic])
T2 sequence (O43283 168-409 limits assumed): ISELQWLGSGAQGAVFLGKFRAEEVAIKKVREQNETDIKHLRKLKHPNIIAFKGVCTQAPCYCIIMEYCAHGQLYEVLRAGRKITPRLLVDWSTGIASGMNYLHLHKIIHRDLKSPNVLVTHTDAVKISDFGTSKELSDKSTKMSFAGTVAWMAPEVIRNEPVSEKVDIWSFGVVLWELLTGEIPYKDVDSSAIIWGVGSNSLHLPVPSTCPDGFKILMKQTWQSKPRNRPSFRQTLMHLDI
Method in brief: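 Read-out is HTRF: Eu-labelled anti-phospho-MKK7 (T275/S277) and XL665 anti-His, incubated 16 h at 32 °C, with a drop in signal marking inhibition. Reaction beforehand: 10 nM LZK kinase domain, 15 nM His-MKK7, 15 µM ATP (final) for 90 min at room temperature, pH 7.5.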

Row | IC50 (DLK) [nM] | IC50 (LZK) [nM] | SMILES
1 | 0.6 | 1.3 | CS(=O)(=O)c1cccc(-c2cc(-c3cnn(C(c4ccc(C(F)(F)F)nc4)C4CCOCC4)c3)cn3nc(N)nc23)c1 (single isomer, unassigned) [II-14, 8-[3-(Methylsulfonyl)phenyl]-6-(1-{tetrahydro-2H-pyran-4-yl[6-(trifluoromethyl)pyridin-3-yl]methyl}-1H-pyrazol-4-yl)[1,2,4]triazolo[1,5-a]pyridin-2-amine]
2 | 0.9 | 2.7 | CS(=O)(=O)c1cccc(-c2cc(-c3cnn(C(c4ccc(C(F)(F)F)nc4)C4CCOCC4)c3)cn3nc(N)nc23)c1 (single isomer, unassigned) [II-15, 8-[3-(Methylsulfonyl)phenyl]-6-(1-{tetrahydro-2H-pyran-4-yl[6-(trifluoromethyl)pyridin-3-yl]methyl}-1H-pyrazol-4-yl)[1,2,4]triazolo[1,5-a]pyridin-2-amine]
3 | 2.1 | 11 | CCS(=O)(=O)c1cccc(-c2cc(-c3cnn(C(c4ccc(C(F)(F)F)nc4)C4CCOCC4)c3)cn3nc(N)nc23)c1 (single isomer, unassigned) [II-17, 8-[3-(Ethylsulfonyl)phenyl]-6-(1-{tetrahydro-2H-pyran-4-yl[6-(trifluoromethyl)pyridin-3-yl]methyl}-1H-pyrazol-4-yl)[1,2,4]triazolo[1,5-a]pyridin-2-amine]
4 | 0.3 | 1.5 | CCS(=O)(=O)c1cccc(-c2cc(-c3cnn(C(c4ccc(C(F)(F)F)nc4)C4CCOCC4)c3)cn3nc(N)nc23)c1 (single isomer, unassigned) [II-18, 8-[3-(Ethylsulfonyl)phenyl]-6-(1-{tetrahydro-2H-pyran-4-yl[6-(trifluoromethyl)pyridin-3-yl]methyl}-1H-pyrazol-4-yl)[1,2,4]triazolo[1,5-a]pyridin-2-amine]
5 | 71 | 140 | Nc1nc2c(-c3cccc(S(=O)(=O)C(F)(F)F)c3)cc(-c3cnn(C(c4ccc(C(F)(F)F)nc4)C4CCOCC4)c3)cn2n1 (single isomer, unassigned) [II-20, 6-(1-{Tetrahydro-2H-pyran-4-yl[6-(trifluoromethyl)pyridin-3-yl]methyl}-1H-pyrazol-4-yl)-8-{3-[(trifluoromethyl)sulfonyl]phenyl}[1,2,4]triazolo[1,5-a]pyridin-2-amine]
6 | 7.6 | 14 | Nc1nc2c(-c3cccc(S(=O)(=O)C(F)(F)F)c3)cc(-c3cnn(C(c4ccc(C(F)(F)F)nc4)C4CCOCC4)c3)cn2n1 (single isomer, unassigned) [II-21, 6-(1-{Tetrahydro-2H-pyran-4-yl[6-(trifluoromethyl)pyridin-3-yl]methyl}-1H-pyrazol-4-yl)-8-{3-[(trifluoromethyl)sulfonyl]phenyl}[1,2,4]triazolo[1,5-a]pyridin-2-amine]
7 | 4.5 | 9.2 | CN(C)c1cccc(-c2cc(-c3cnn(C(c4ccc(C(F)(F)F)nc4)C4CCOCC4)c3)cn3nc(N)nc23)c1 (single isomer, unassigned) [II-23, 8-[3-(Dimethylamino)phenyl]-6-(1-{tetrahydro-2H-pyran-4-yl[6-(trifluoromethyl)pyridin-3-yl]methyl}-1H-pyrazol-4-yl)[1,2,4]triazolo[1,5-a]pyridin-2-amine]
8 | 0.5 | 2.3 | CN(C)c1cccc(-c2cc(-c3cnn(C(c4ccc(C(F)(F)F)nc4)C4CCOCC4)c3)cn3nc(N)nc23)c1 (single isomer, unassigned) [II-24, 8-[3-(Dimethylamino)phenyl]-6-(1-{tetrahydro-2H-pyran-4-yl[6-(trifluoromethyl)pyridin-3-yl]methyl}-1H-pyrazol-4-yl)[1,2,4]triazolo[1,5-a]pyridin-2-amine]
9 | 210 | 150 | CCC(c1ccc(C(F)(F)F)nc1)n1cc(-c2cc(-c3ccnc(OC(F)F)c3)c3nc(N)nn3c2)cn1 (single isomer, unassigned) [II-26, 8-[2-(Difluoromethoxy)pyridin-4-yl]-6-(1-{1-[6-(trifluoromethyl)pyridin-3-yl]propyl}-1H-pyrazol-4-yl)[1,2,4]triazolo[1,5-a]pyridin-2-amine]
10 | 30 | 55 | CCC(c1ccc(C(F)(F)F)nc1)n1cc(-c2cc(-c3ccnc(OC(F)F)c3)c3nc(N)nn3c2)cn1 (single isomer, unassigned) [II-27, 8-[2-(Difluoromethoxy)pyridin-4-yl]-6-(1-{1-[6-(trifluoromethyl)pyridin-3-yl]propyl}-1H-pyrazol-4-yl)[1,2,4]triazolo[1,5-a]pyridin-2-amine]
11 | 120 | 97 | CC(C)C(c1ccc(C(F)(F)F)nc1)n1cc(-c2cc(-c3ccnc(C(F)(F)F)c3)n3nc(N)nc3c2)cn1 (single isomer, unassigned) [II-29, 7-(1-{2-Methyl-1-[6-(trifluoromethyl)pyridin-3-yl]propyl}-1H-pyrazol-4-yl)-5-[2-(trifluoromethyl)pyridin-4-yl][1,2,4]triazolo[1,5-a]pyridin-2-amine]
12 | 8.7 | 6.7 | CC(C)C(c1ccc(C(F)(F)F)nc1)n1cc(-c2cc(-c3ccnc(C(F)(F)F)c3)n3nc(N)nc3c2)cn1 (single isomer, unassigned) [II-30, 7-(1-{2-Methyl-1-[6-(trifluoromethyl)pyridin-3-yl]propyl}-1H-pyrazol-4-yl)-5-[2-(trifluoromethyl)pyridin-4-yl][1,2,4]triazolo[1,5-a]pyridin-2-amine]
13 | 66 | 16 | CCC(c1ccc(C(F)(F)F)nc1)n1cc(-c2cc(-c3ccnc(C4(F)CC4)c3)n3nc(N)nc3c2)cn1 (single isomer, unassigned) [II-32, 5-[2-(1-Fluorocyclopropyl)pyridin-4-yl]-7-(1-{1-[6-(trifluoromethyl)pyridin-3-yl]propyl}-1H-pyrazol-4-yl)[1,2,4]triazolo[1,5-a]pyridin-2-amine]
14 | 17 | 7.6 | CCC(c1ccc(C(F)(F)F)nc1)n1cc(-c2cc(-c3ccnc(C4(F)CC4)c3)n3nc(N)nc3c2)cn1 (single isomer, unassigned) [II-33, 5-[2-(1-Fluorocyclopropyl)pyridin-4-yl]-7-(1-{1-[6-(trifluoromethyl)pyridin-3-yl]propyl}-1H-pyrazol-4-yl)[1,2,4]triazolo[1,5-a]pyridin-2-amine]
15 | 63 | 44 | Nc1nc2cc(-c3cnn(C(c4ccc(C(F)(F)F)nc4)C4CCOCC4)c3)cc(-c3ccnc(C(F)(F)F)c3)n2n1 (single isomer, unassigned) [II-35, 7-(1-{Tetrahydro-2H-pyran-4-yl[6-(trifluoromethyl)pyridin-3-yl]methyl}-1H-pyrazol-4-yl)-5-[2-(trifluoromethyl)pyridin-4-yl][1,2,4]triazolo[1,5-a]pyridin-2-amine]
16 | 6.3 | 7.9 | Nc1nc2cc(-c3cnn(C(c4ccc(C(F)(F)F)nc4)C4CCOCC4)c3)cc(-c3ccnc(C(F)(F)F)c3)n2n1 (single isomer, unassigned) [II-36, 7-(1-{Tetrahydro-2H-pyran-4-yl[6-(trifluoromethyl)pyridin-3-yl]methyl}-1H-pyrazol-4-yl)-5-[2-(trifluoromethyl)pyridin-4-yl][1,2,4]triazolo[1,5-a]pyridin-2-amine]
